The record followed here is PubChem BioAssay (NCI).

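All cell lines were grown in 96-well plates and treated with compound for 48 hours. At the TGI there is no net growth.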

What all share (experiment): NCI anticancer screen, dose series, 48 h
For test [1], the system named is HS 578T breast.
For test [2], the system named is SF-268 CNS.
In test [3] the test system is HOP-62 NSCLC.
For test [4], the system named is NCI/ADR-RES ovarian.
The subject of test [5] is CCRF-CEM leukemia.
For test [6], the system named is A498 renal.
In test [7] the test system is SK-MEL-5 melanoma.
For test [8], the system named is SK-OV-3 ovarian.
Test [9] concerns BT-549 breast.
In test [10] the test system is RXF 393 renal.

In the case of `COc1cccc(/C=N/n2c(Cc3ccc(Cl)cc3)n[nH]c2=O)c1`, the TGI in test [1] was 72.7 µM; in test [2], 34.9 µM; in test [3], 43.9 µM; in test [4], greater than 88.7 µM; in [5], greater than 100 µM; in [6], greater than 100 µM. The TGI was greater than 100 µM in test [7], 81.9 µM in [8], 57.1 µM in test [9] and 11.2 µM in test [10].

Regarding `CCOC(=O)O/N=C1/C(c2c(O)[nH]c3ccccc23)=Nc2ccccc21`, the TGI turned out to be 51.8 µM in test [1]; 68.2 µM in test [2]; 33.9 µM in test [3]; 78.6 µM in test [4]; 16.6 µM in test [5]; 16.8 µM in test [6]. In addition, the TGI in [7] was 6.99 µM; in [8] it was 7.07 µM; in [9], 31.7 µM; in [10], 6.16 µM.

Take `CC(C)(CN1CCCCC1)C(=O)/C=C/c1c(Cl)cccc1Cl`: the TGI came out at 8.8 µM in [1]; 3.88 µM in test [2]; 4.03 µM in test [3]; 5.09 µM in test [4]; 2.73 µM in test [5]; 4.96 µM in test [6]. The TGI in test [7] is 2.92 µM; in test [8] it was 8.47 µM; in test [9], 4.06 µM; in test [10] it was 2.39 µM.

For `Cc1nc2sccn2c1C(=O)OCCOCCOCCOCCOC(=O)c1c(C)nc2sccn12`, the TGI in [1] was greater than 100 µM; in [2], greater than 100 µM; in [3], greater than 100 µM; in test [4], greater than 100 µM; in test [6], greater than 100 µM; in test [7], 35.5 µM. The TGI in [9] and in test [10] was greater than 100 µM in each case.

With `Cc1nc(N)nc(N)c1N1CCN(Cc2ccccc2)CC1`, the TGI in test [1] is greater than 100 µM; in [2], greater than 100 µM; in [3] it was greater than 100 µM; in test [4], greater than 92.6 µM; in [5] it was greater than 100 µM; in test [6], greater than 100 µM. Moreover, the TGI in test [7], in test [8], in test [9] and in test [10] was greater than 100 µM each time.

On to `CCOC(=O)/C=C(/C(=O)OCC)n1ccc(=O)[nH]c1=O`, for which the TGI in test [1] was found to be 37.9 µM; in test [2], 39.6 µM; in [3], 35.7 µM; in test [4], 40.4 µM; in test [5], 3.99 µM; in test [6] it was 38.2 µM. The TGI in test [7] worked out at 31 µM; in test [8], 32.9 µM; in test [9] it was 24.9 µM; in [10] it was 13.8 µM.

Take `CC12CCC(C1)C(C)(C)C2OC(=O)c1ccccc1C(=O)O` (configuration not stated): the TGI in test [1], in test [2], in [3], in test [4], in test [6] and in [7] was greater than 100 µM each time. In addition, the TGI in test [8], in [9] and in [10] was greater than 100 µM in each case.

In the case of `C/C(NC(=O)c1ccccc1)=C(/C(=O)c1ccccc1)[C@@H]1OC(C)(C)O[C@@H]1[C@H]1COC(C)(C)O1`, the TGI in [1] was greater than 100 µM; in [2], greater than 100 µM; in test [3] it was greater than 100 µM; in test [4] it was greater than 100 µM; in [6], greater than 100 µM; in [7], 35.6 µM. Besides, the results for the TGI in test [9] and in test [10] were 82.4 µM and greater than 100 µM, respectively.

Turning to `C=CCc1cccc2cc(C(=O)Nc3nc(C45CC6CC(CC(C6)C4)C5)cs3)c(=O)oc12`, the TGI in test [1] was 47.9 µM; in [2] it was 55 µM; in test [3], 36.3 µM; in test [4], greater than 100 µM; in test [5], greater than 100 µM; in test [6], 70.6 µM. In addition, the figures for the TGI in test [7], in test [9] and in test [10] were greater than 100 µM, greater than 100 µM and 22.5 µM, respectively.

On to `COc1cc(C)cc(OC)c1/C=C/C(=O)O`, for which the TGI in test [1], in test [2], in [3], in [4], in [6] and in [7] was greater than 100 µM throughout. Moreover, the TGI in test [9] and in test [10] was greater than 100 µM throughout.

With `C=C1[C@H](OCC(C)C)[C@@H](OC(=O)C(C)CC)[C@@H](O)C(C)(C)/C=C/[C@H](C)C(=O)[C@@]2(O)C[C@H](C)[C@H](O)[C@@H]2[C@H]1OC(=O)C(C)CC` (some centres not stated), the TGI was 10.6 µM in test [1]; greater than 20 µM in test [2]; greater than 10.5 µM in test [3]; greater than 20 µM in test [4]; greater than 9.76 µM in [5]; 12.2 µM in test [6]. Also, the TGI in test [7] was greater than 10.8 µM; in [8], greater than 20 µM; in test [9], greater than 20 µM; in test [10] it was greater than 20 µM.

Consider `CN(/N=C/c1ccc(Cl)c(Cl)c1)C1=NCCN1`, for which the TGI in test [1] was greater than 100 µM; in [2], greater than 100 µM; in test [3] it was 37.7 µM; in [4], greater than 100 µM; in [5], greater than 100 µM; in test [6], 28.1 µM. Moreover, the TGI in [7] came out at 30.7 µM; in [8], 81.8 µM; in [9], 95.3 µM.

As for `CCOC(=O)C12C(=O)CCN1CCc1ccccc1C2C` (configuration not stated), the TGI in [1], in test [2], in test [3], in [4], in [6] and in test [7] was greater than 100 µM in each case. The TGI in test [8], in [9] and in test [10] was greater than 100 µM in each case.

In the case of `C/C(=N\NC(=O)N/N=C(\C)c1ccccn1)c1ccccn1`, the TGI was greater than 100 µM in test [1]; greater than 83.9 µM in test [2]; greater than 100 µM in test [3]; 93.6 µM in test [4]; greater than 100 µM in test [5]; greater than 100 µM in test [6]. Also, the TGI in [7] is greater than 47.3 µM; in [8], greater than 100 µM; in [9], 18.2 µM; in [10], greater than 100 µM.

Consider `CCOC(=O)C1=CN(C(=O)c2ccccc2)CCC1Cc1ccccc1` (configuration not stated), for which the TGI is 92.8 µM in test [1]; greater than 100 µM in test [2]; greater than 100 µM in test [3]; 93 µM in test [4]; 54.5 µM in [5]; 39.4 µM in test [6]. Moreover, the TGI was 28.3 µM in test [7], greater than 100 µM in [8], 85.9 µM in test [9] and 61.8 µM in test [10].

In the case of `CC(CN(C)C)C(=O)/C=C/c1ccc(Cl)c(Cl)c1` (configuration not stated), the TGI in [1] is 29 µM; in test [2], 4.14 µM; in test [3], 10.4 µM; in [4], 79.6 µM; in test [5], 2.74 µM; in test [6], 3.69 µM. Besides, the TGI in [7] came to 2.99 µM; in test [8], 17.5 µM; in test [9], 4.45 µM; in [10], 40.8 µM.

Take `Cc1nn(C(=O)c2ccc(Cl)cc2)c2c1C(c1ccco1)SC(N)=N2` (configuration not stated): the TGI in [1], in test [2], in test [3], in [4], in test [5] and in test [7] was greater than 10 µM throughout. Besides, the TGI in [8], in [9] and in test [10] was greater than 10 µM in each case.

Consider `OCCNc1nc2c(N3CCCC3)nc(N3CCNCC3)nc2nc1NCc1ccccc1`, for which the TGI in [1] is 51.4 µM; in test [2], 34.1 µM; in [3] it was 18.1 µM; in test [4], greater than 100 µM; in [5], 30 µM; in [7], 26.1 µM. The TGI in test [8] is 31.1 µM; in test [9], 30.8 µM; in test [10], 24.7 µM.

On to `CC(C)(C)c1cc(C2NC(=O)NC2=O)cc(C(C)(C)C)c1O` (configuration not stated), for which the TGI in test [1] was 69.8 µM; in test [2], greater than 100 µM; in test [3] it was greater than 100 µM; in [4] it was greater than 100 µM; in test [5] it was greater than 100 µM; in [6] it was greater than 100 µM. The TGI in [8] is greater than 100 µM; in [9], greater than 100 µM; in test [10] it was 95.7 µM.

`CCOC(=O)/C=C1/Nc2cc(F)c(F)cc2NC1=O`: the TGI in test [1], in test [2], in test [3], in test [4], in [5] and in test [7] was greater than 100 µM in each case. Also, the TGI in test [8], in [9] and in test [10] was greater than 100 µM in each case.

Turning to `O=C1/C(=C2\SCC(=O)N2c2ccccc2)SC(=S)N1c1ccccc1`, the TGI was greater than 100 µM in [1]; greater than 100 µM in test [2]; 90.7 µM in test [4]; greater than 100 µM in [5]; greater than 100 µM in [6]; greater than 100 µM in test [7]. Also, the TGI in [8] was 55.2 µM; in [9] it was greater than 100 µM; in [10], greater than 100 µM.

Consider `CC(=O)C(C(=O)C(C)(C)C)C(=O)C(C)(C)C`, for which the TGI in test [1], in test [2], in test [3], in test [4], in [5] and in [7] was greater than 100 µM each time. Moreover, the TGI in [8], in test [9] and in test [10] was greater than 100 µM each time.

Turning to `Cc1ccc(C2(c3ccc(C)c(O)c3C)CCN(C)CC2)c(C)c1O`, the TGI in [1], in [2], in test [3], in test [4], in test [5] and in [6] was greater than 100 µM in each case. The TGI in [7], in [9] and in test [10] was greater than 100 µM each time.

With `COc1cc(-c2coc3c(OC)c(OC4OC(COC5OC(C)C(O)C(O)C5O)C(O)C(O)C4O)c(OC)c(O)c3c2=O)cc(C)c1O` (configuration not stated), the TGI in test [1] was 62.1 µM; in test [2] it was 62.2 µM; in test [3] it was 81.9 µM; in [4], 52.5 µM; in [5] it was greater than 100 µM; in test [7], 26.5 µM. In addition, the TGI in [8] was 60.3 µM; in test [9], 45.4 µM; in [10], 32.5 µM.

For the molecule `S=C1CSc2c(cnc3ccccc23)N1`, the TGI in test [1], in test [2], in test [3], in test [4], in test [5] and in [7] was greater than 100 µM in each case. Besides, the TGI in [8], in test [9] and in test [10] was greater than 100 µM throughout.

Regarding `Cc1csc2n(C)c(=O)c3ccccc3[n+]12`, the TGI in test [1], in [2], in test [3], in [4], in test [5] and in test [7] was greater than 100 µM each time. In addition, the TGI in test [8], in test [9] and in test [10] was greater than 100 µM in each case.

As for `O=c1c(S(=O)(=O)Oc2ccccc2)coc2cc(F)ccc12`, the TGI in test [1], in test [2], in test [3], in test [4], in test [5] and in [7] was greater than 100 µM throughout. Moreover, the TGI in [8], in test [9] and in test [10] was greater than 100 µM each time.

In the case of `c1ccc2nn(C3CCCCO3)nc2c1` (configuration not stated), the TGI in test [1], in [2], in [3], in test [4], in test [5] and in test [7] was greater than 100 µM in each case. Besides, the TGI in [8], in test [9] and in [10] was greater than 100 µM each time.

On to `OC1(c2ccc(Cl)cc2)c2ccccc2C2=NCc3ccccc3CN21` (configuration not stated), for which the TGI is 32.5 µM in test [1]; 25.3 µM in test [2]; 21.9 µM in test [3]; 26.2 µM in test [4]; greater than 69.6 µM in [5]; 30.2 µM in [6]. For the same molecule, the results for the TGI in [7], in [8] and in test [9] were 33.6 µM, 21.2 µM and 44.7 µM, respectively.
